From patent US6417183B1, “1,4-diazacycloheptane derivatives” (Astrazenela UK Limited, priority 1997, dated 2002) come the findings set out here.

Counter-ions that a name gives are not always drawn.

The test system of data set [1] is L-type voltage sensitive calcium channels (3H-D888 binding site). Description: 3H-D-888 binding to rat brain cortical membranes. Particulars: displacement of 3H-D888, rat cortical membranes, 60 minutes at 25° C. The protocol: ^3H-D-888 Binding to Rat Brain Cortical Membranes
The method of ^3H-D-888 binding was a modification of Reynolds, I. J., Snowman, A. M. and Synder, S. H. (−)-[^3H] Desmethoxyverapamil labels multiple calcium channel modular receptors in brain and skeletal muscle membranes: differentiation by temperature and dihydropyridines. J. Pharmacol. Exp. Ther. 237: no.3, 731-738, 1986.
The assay tubes contained the following: assay buffer: 50 mM Hepes, 0.2% BSA, pH 7.4 radioligand: 1 πM ^3H-D888 (Amersham) rat cortical membranes: 6 mg/ml original wet weight
This mixture was incubated for 60 minutes at 25° C. The assay was terminated by filtering with a Brandel Cell Harvester over Whatman GF/C filters that had been soaked for at least 120 minutes in 0.3% polyethylenamine (PEI) and washed three times with 5 mL of wash buffer containing 20 mM Hepes, 20 mM MgCl2, pH 7.4. Specific binding was measured with 10 μM methoxyverapamil (D-600). This assay was used to determine in vitro selectivity of compounds vs. L-type voltage sensitive calcium channels, i.e high affinity for the ^3H-D888 binding site would show a lack of selectivity. For example the compound of Example 4 gave a value of about 19.000 nM in this test.
Rat brain cortical membrane preparation: Male Sprague-Dawley Rats were sacrificed by decapitation and the brains were quickly excised. […]
(In a radioligand displacement assay an active substance lowers the binding of a labelled ligand.)

The target in data set [2] is T1, [3H]-emopamil binding site (Cavia porcellus, UniProt Q60490).
T1 construct: from tissue; host or cells: guinea pig liver membranes
T1 sequence (Q60490 1-229): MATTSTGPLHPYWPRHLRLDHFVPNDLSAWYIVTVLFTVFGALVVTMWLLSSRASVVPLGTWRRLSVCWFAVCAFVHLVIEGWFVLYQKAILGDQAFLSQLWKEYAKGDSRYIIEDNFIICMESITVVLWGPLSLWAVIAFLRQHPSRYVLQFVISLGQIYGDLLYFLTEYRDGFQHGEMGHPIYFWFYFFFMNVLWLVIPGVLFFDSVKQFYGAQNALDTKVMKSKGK
The data set is described as follows: 3H-Emopamil binding to guinea pig liver membranes. Particulars: displacement of 0.96 nM (-)-3H-emopamil, 60 minutes at 37° C. As to the method:
^3H-Emopamil Binding to Guinea Pig Liver Membranes
The method of (−)-^3H-emopamil binding was a modification of Zech, C., Staudinger R., Mühlbacher, J. and Glossmann, H. Novel sites for phenylalkylamines: characterization of a sodium-sensitive drug receptor with (−)-^3H-emopamil. Eur. J. Pharm. 208: 119-130, 1991.
The reaction mixture contained:
Assay buffer: 10 mM Tris-HCl, 0.1 mM phenylmethylsulfonyl fluoride (PMSF), 0.2% bovine serum albumin (BSA), pH 7.4 at 4° C.
Radioligand: 0.96 nM (−)-^3H-emopamil (Amersham).
Guinea pig liver membranes: 40 mg/mL original wet weight.
This mixture was incubated for 60 minutes at 37° C. The incubation was terminated by filtering with a Brandel Cell Harvester over Whatman GF/C filters that had been soaked for at least 120 minutes in 0.3% polyethylenimine (PEI) and washed three times with 5 mL of wash buffer containing 10 mM Tris-HCl, 10 mM MgCl2, 0.2% BSA, pH 7.4 at 25° C. Specific binding was defined with 10 μM emopamil. […]
Guinea-pig liver membrane preparation: Male guinea pigs were sacrificed by CO2 asphyxiation with dry ice. The livers were quickly excised and weighed and rinsed in membrane preparation buffer containing 10 mM Hepes, 1 mM Tris base-EDTA, 250 mM […] Teflon-glass homogenizer with three strokes on ice. […]

As usually defined, the melting point is the temperature of the solid-liquid transition. In turn, `COc1cccc2c1CCCC2N1CCCN(C)CC1` (centres unmarked) (as salt: hydrochloride) [Example 7, 1-Methyl-4-(5-methoxy-1,2,3,4-tetrahydro-1-naphthalenyl)homopiperazine] had a melting point of 172.2 to 176.6 °C. `CC(C)N1CCCN(C2CCCc3ccccc32)CC1` (centres unmarked) (as salt: hydrochloride) [Example 13, 1-Isopropyl-4-(1,2,3,4-tetrahydro-1-naphthalenyl)homopiperazine] yielded a melting point of 149.5 to 151 °C. Same read-out and setting: then `CN1CCCN(C2CCCc3ccccc32)CC1` (centres unmarked) (as salt: maleate) [Example 1, 1-Methyl-4-(1,2,3,4-tetrahydro-1-naphthalenyl)homopiperazine], with 125.4 to 126.3 °C; and `c1ccc2c(c1)CCCC2N1CCCNCC1` (centres unmarked) (as salt: salt) [Example 2, N-(1,2,3,4-Tetrahydro-1-naphthalenyl)homopiperazine], with 107 to 109.4 °C. Still for that read-out and setting: then `CN1CCCN(C2CCCc3cc(F)ccc32)CC1` (centres unmarked) (as salt: salt) [Example 16, 1-Methyl-4-(6-fluoro-1,2,3,4-tetrahydro-1-naphthalenyl)homopiperazine], with 78.8 to 79.5 °C; and `CCc1ccc2c(c1)CCCC2N1CCCN(C)CC1` (centres unmarked) (as salt: salt) [Example 25, 1-Methyl-4-(6-ethyl-1,2,3,4-tetrahydro-1-naphthalenyl)homopiperazine], with 131.5 to 132.8 °C. By IC50 is commonly meant the concentration that inhibits the measured activity by half. A lower IC50 goes with greater potency. `CN1CCCN([C@H]2CCCc3ccccc32)CC1` [Example 4, S(+) 1-Methyl-4-(1,2,3,4-tetrahydro-1-naphthalenyl)homopiperazine]: in data set [1], the “value in 3H-D-888 binding test (in vitro selectivity vs. L-type VSCC)” value was “about 19.000 nM”. In data set [2], this molecule displayed an IC50 of 0.017 µM.
